Data set [1] can be described thus: Thermodynamic parameters of the Vx-770 aqueous solution process. The data set is classed as physicochemical. The method, then: As a further parameter of clinical interest, we also determined the aqueous solubility of Vx-770 at body temperature (pH = 7.1). […] The standard enthalpy of solution, estimated from the solubilities at 37°C vs. 25°C, is ΔH^osol = +51.2 kJ/mol, and the standard free energy of solution at 25°C is ΔG^osol = +41.1 kJ/mol (Materials and methods).
The standard enthalpy of solution was calculated as ΔH^osol = ((RT1T2)/(T2−T1))⋅ln(S(T2)/S(T1)), where R = 8.31 Jmol^−1K^−1, T1 = 298 K (25°C), T2 = 310 K (37°C), and S(T1) and S(T2) are the measured aqueous solubilities of Vx-770 at the respective temperatures (pH = 7.1). The standard free energy of solution at T = 298 K (25°C) was calculated as ΔG^osol = −RT⋅ln(S(T)).

Data set [2] is described as follows: Determination of Vx-770 solubility profile (incremental solvent addition; saturated saline, 1-octanol extraction, spectrophotometry at 311 nm). In kind it is physicochemical. To be noted: for solubility at 24 h: aqueous saline (standard bath solution). An excerpt:
We reasoned that some of the reported controversies on Vx-770 effects might be explained by the use of highly supersaturated concentrations of the drug in all published studies, and set out to determine its true solubility profile. Starting from crystalline Vx-770 (Selleck Chemicals), solubilities (S) of the drug in various organic solvents could be readily determined by adding incremental small volumes of solvent until all crystals had been dissolved (Table 1). We found Vx-770 extremely soluble in anhydrous dimethyl sulfoxide (DMSO) (S ~ 0.77 M), and reasonably soluble in 1-octanol (S ~ 3.9 mM) and ethanol (S ~ 3.1 mM). […] To generate an aqueous solution exactly saturated with Vx-770, a small aliquot of crystals was added to an aqueous saline (pH = 7.1) and, after vigorous shaking for 24 hr, visible crystals were removed by repeated filtering and microcrystals sedimented by centrifugation (Materials and methods). The resulting supernatant (our ‘1x saturated’ stock solution) was then used both for determination of Vx-770 solubility (Figure 1b–c), and for functional experiments (Figures 2–5). […] Repeated extraction of the aqueous stock with 1-octanol yielded a flat spectrum ([…], green spectrum, ‘2nd extract’), confirming that all Vx-770 had been efficiently extracted in the first round.
Crystalline Vx-770 (purity 99.58% by HPLC) was purchased from Selleck Chemicals (Houston, TX, USA). Solubilities (S) at 25°C in anhydrous dimethyl sulfoxide (DMSO) (S ~ 0.77 M), 1-octanol (S ~ 3.9 mM), ethanol (S ~ 3.1 mM), octane (S ~ 2.6 mM), and pentane (S ~ 18 μM) were determined by weighing out a small amount (1–2 mg) of crystals on an analytical balance (Kern ABJ), and adding incremental small volumes of solvent, followed by mixing, until all crystals had been dissolved.
To obtain an aqueous solution (pH = 7.1) exactly saturated with Vx-770 (our ‘1x saturated’ stock), a small aliquot of Vx-770 crystals (~0.1 mg) was added to 250 ml of our standard bath solution (in mM: 134 NMDG-Cl, 2 MgCl2, 5 HEPES, 0.5 EGTA, pH = 7.1 with NMDG), and the solution was shaken for 24 hr at 25°C at 200 RPM (New Brunswick Excella E24). Remaining, clearly visible, macrocrystals were removed by filtering the solution twice through an 0.22 μm pore size filter (Millipore Durapore Steritop + Stericup, Merck KGaA, Darmstadt, Germany). To sediment invisible microcrystals, the filtrate was centrifuged at 7200 RCF for 1 hr in 50 ml conical tubes, and the supernatant carefully removed, leaving the last ~1 ml behind. The resulting cleared filtrate was stored and used as a stock solution for all subsequent studies.
The concentration of Vx-770 in the 1x saturated stock was determined by spectrophotometry (NanoPhotometer P300, Implen GmbH). […] To obtain a calibration curve, Vx-770 (from a commercial 10 mM stock dissolved in DMSO, purchased from Selleck Chemicals) was diluted into 1-octanol (saturated with water) to final concentrations of 1, 2, 4, 8, and 16 μM. Absorption spectra were measured in a 1 ml quartz cuvette against 1-octanol (saturated with water) as a blank (Figure 1b, blue spectra). To extract Vx-770 from the 1x saturated aqueous stock, two 15 ml conical tubes, each containing 14 ml of the 1x aqueous stock plus 0.7 ml 1-octanol, were vortexed for 1 min, and then centrifuged at 7200 RCF for 30 min. Approximately 2 × 0.6 ml of the 1-octanol phase was recovered, pooled, and its absorption spectrum measured in a 1 ml quartz cuvette against 1-octanol (saturated with water) as a blank (Figure 1b, red spectrum). To extract the remaining aqueous phase for a second time, the remnants of the 1-octanol phase were carefully discarded from both conical tubes, and 12.5 ml of the remaining aqueous phase (removed by inserting the pipette tip well below the surface) was transferred into two clean conical tubes. The extraction was then repeated using 2 × 0.625 ml 1-octanol, from which 2x ~ 0.5 ml was recovered, pooled, and assayed for optical density (Figure 1b, green spectrum). […]

Data set [3] relates to WT CFTR. To be noted: cited from earlier work.
Data set [4] can be described thus: Determination of Vx-770 solubility profile (incremental solvent addition; saturated saline, 1-octanol extraction, spectrophotometry at 311 nm). The note with it: aqueous saline (standard bath solution), read-out: aqueous solubility Saq. In kind it is physicochemical.

≈ marks a conversion by molar mass, not a printed value. Where “and” joins values, the source holds several entries; their conditions need not be identical. Identical values can stand only once. Like-named read-outs stand apart in the source and are kept apart here.

A word on the solubility: it is how much of the substance goes into solution per volume. For orientation: pKa means the pH at which an ionisable group is half protonated. Regarding `CC(C)(C)c1cc(C(C)(C)C)c(NC(=O)c2c[nH]c3ccccc3c2=O)cc1O` [Vx-770, ivacaftor], in data set [1] (25°C), the “TΔS^osol” value was “+10.1 kJ/mol”. In addition, the “standard free energy of solution ΔG^osol” value in data set [1] (25°C) was “+41.1 kJ/mol”. In addition, the “standard enthalpy of solution ΔH^osol” value in data set [1] (from aqueous solubilities at 37°C vs. 25°C, pH 7.1) is “+51.2 kJ/mol”. In addition, the solubility in data set [2] (1-octanol, 25 °C, organic solvent or mixture, thermodynamic from solid, 1-octanol, 25°C, read-out: S (solubility)) is 3900 µM (≈ 1530 µg/mL); in data set [2] (anhydrous DMSO, 25 °C, organic solvent or mixture, thermodynamic from solid, DMSO, 25°C, read-out: S (solubility)), 770000 µM (≈ 302000 µg/mL); in data set [2] (ethanol, 25 °C, organic solvent or mixture, thermodynamic from solid, ethanol, 25°C, read-out: S (solubility)) it was 3100 µM (≈ 1220 µg/mL); in data set [2] (octane, 25 °C, organic solvent or mixture, thermodynamic from solid, octane, 25°C, read-out: S (solubility)) it was 2600 µM (≈ 1020 µg/mL); in data set [2] (octane, 25°C, read-out: S (solubility)), approximately 2600 µM (≈ 1020 µg/mL); in data set [2] (pentane, 25 °C, organic solvent or mixture, thermodynamic from solid, pentane, 25°C, read-out: S (solubility)), 18 µM (≈ 7.06 µg/mL). The solubility is approximately 18 µM (≈ 7.06 µg/mL) in data set [2] (pentane, 25°C, read-out: S (solubility)) and 0.138 ± 0.001 µM (≈ 0.0542 µg/mL) in data set [4] (pH 7.1, 37°C, pH = 7.1, aqueous saline). Moreover, the “aqueous solubility lower than reported / generally believed” value in data set [2] (25°C) is ~ 200 fold. In addition, the “aqueous solubility Saq” value in data set [2] (25°C, pH = 7.1, aqueous saline) was ~ 62 nM and ~ 60 nM. Besides, the solubility at 24 h was 0.062 µM (≈ 0.0243 µg/mL) in data set [2] (25 °C, pH 7.1, thermodynamic from solid, water (pH=7.1), aqueous saline, 25°C, read-out: S (solubility)); 0.05 to 0.062 µM (≈ 0.0196 to 0.0243 µg/mL) in data set [2] (pH 7.1, 25°C, over pH 7.1 and 7.4, read-out: aqueous solubility estimate); 0.06 µM (≈ 0.0235 µg/mL) in data set [2] (pH 7.1, 25°C, pH = 7.1, aqueous saline, read-out: aqueous solubility Saq); 0.05 ± 0.001 µM (≈ 0.0196 µg/mL) in data set [4] (pH 7.4, 25°C, pH = 7.4, aqueous saline). For the same compound, the pKa in data set [2] (inferred from solubility at pH 7.4 vs 7.1, read-out: strongest acidic pKa) is more than 7.4. In addition, the “aqueous solubility at 37°C compared to that at 25°C” value in data set [2] (pH = 7.1, higher at 37°C) is listed as ~ 2 fold. The “maximal stimulation of WT CFTR channels” value in data set [3] (lower end of reported range, ref Cui and McCarty, 2015) is given as ~ 1.1 fold; in data set [3] (upper end of reported range, ref Wang et al., 2018), ~ 3 fold. The “reversibility of CFTR channel stimulation in cell-free patches” value in data set [3] (ref Jih and Hwang, 2013, Lin et al., 2016, Yeh et al., 2015, 2017, Wang et al., 2014, 2018) is “irreversible”. For the same compound, the EC50 in data set [3] (ref Van Goor et al., 2014, Langron et al., 2018, read-out: previously reported K0.5 for stimulation of WT CFTR) was approximately 300 nM.

These data come from paper PMC6594753, “Cystic fibrosis drug ivacaftor stimulates CFTR channels at picomolar concentrations” (eLife, 2019).
